Laboratory results: PubChem BioAssay (NCI)
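The compound was tested at five concentrations on cells cultured in 96-well plates, with a 48-hour exposure period. The concentration for 50% growth inhibition is given as GI50. TGI denotes the concentration required for complete inhibition of growth.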

Experiments:
Assay in all cases: NCI tumour cell line growth inhibition, 48 h
[1] = test system: OVCAR-4 ovarian
[2] = test system: K-562 leukemia
[3] = test system: NCI-H522 lung
[4] = test system: SW-620 colon
[5] = test system: UO-31 renal
[6] = test system: OVCAR-8 ovarian
[7] = test system: HCT-15 colon
[8] = test system: OVCAR-5 ovarian
[9] = test system: SNB-75 CNS
[10] = test system: HCC-2998 colon
[11] = test system: KM20L2 colon

Compound | TGI [1] [µM] | TGI [2] [µM] | TGI [3] [µM] | TGI [4] [µM] | TGI [5] [µM] | TGI [6] [µM] | TGI [7] [µM] | TGI [8] [µM] | TGI [9] [µM] | TGI [10] [µM] | TGI [11] [µM] | GI50 [1] [µM] | GI50 [2] [µM] | GI50 [3] [µM] | GI50 [4] [µM] | GI50 [10] [µM] | GI50 [5] [µM] | GI50 [6] [µM] | GI50 [7] [µM]
Cc1ccc(S(=O)(=O)OCC(=O)O)cc1 | > 100 | > 100 | > 100 | > 100 | > 100 | > 100 | > 100 | > 100 | – | – | – | – | – | – | – | – | – | – | –
CCCCCC(=O)NC(=S)Nc1nn[nH]n1 | > 100 | > 100 | > 100 | > 100 | > 100 | – | > 100 | > 100 | > 100 | > 100 | – | – | – | – | – | – | – | – | –
COc1cc(Nc2c3ccccc3nc3ccccc23)ccc1NS(C)(=O)=O | 12.3 | > 100 | 12.9 | > 100 | 16.9 | 17.2 | – | 23 | 47.1 | 28.8 | 17.1 | – | – | – | – | – | – | – | –
N=C(N)c1ccc(N=Nc2c(O)ccc3c2[nH]c2ccccc23)cc1 | > 28.5 | 4.02 | > 100 | 4.85 | > 90.9 | – | > 100 | 83.1 | > 100 | – | – | – | – | – | – | – | – | – | –
COc1ccc(/C(Cl)=C(\C=O)c2ccc(F)cc2)cc1OC | – | 73.5 | 46.5 | > 100 | 61.1 | > 100 | 83.3 | – | 13.7 | – | 34.1 | – | – | – | – | – | – | – | –
C[C@]12CCc3nc(Nc4ccccc4)sc3C1=CC[C@@H]1[C@@H]2CC[C@]2(C)/C(=N/NC(N)=S)CC[C@@H]12 | > 100 | > 100 | > 100 | > 100 | > 100 | > 100 | 6.25 | – | – | > 100 | – | 7.86 | 1.97 | 3.07 | 3.09 | 32.6 | 3.71 | 3.32 | 1.64
O=C(NC(Cc1ccc(I)cc1)C(=O)O)c1ccc(Br)cc1 (stereo unspecified) | > 100 | > 100 | > 100 | > 100 | > 100 | > 100 | > 100 | > 100 | > 100 | > 100 | > 100 | – | – | – | – | – | – | – | –
Nc1ccc(N=Nc2ccccc2)cc1 | > 100 | > 100 | – | > 100 | > 100 | > 100 | > 100 | > 100 | 56 | > 100 | – | – | – | – | – | – | – | – | –
COc1ccc(O)cc1 | > 100 | > 100 | – | > 100 | > 100 | > 100 | 98.4 | > 100 | > 100 | > 100 | > 100 | – | – | – | – | – | – | – | –
Nc1ccc2[nH]c3c(-c4ccccc4)nccc3c2c1 | > 75.5 | > 100 | > 100 | > 100 | > 100 | > 100 | > 100 | > 100 | > 92.7 | 96.8 | > 100 | – | – | – | – | – | – | – | –
Cc1[nH]c(=O)[nH]c(=O)c1/C=C/C(=O)O | > 1000 | > 1000 | > 1000 | > 1000 | > 1000 | > 1000 | > 1000 | > 1000 | > 1000 | > 1000 | > 1000 | – | – | – | – | – | – | – | –
